Assay: in vitro
Details: microsomes, pH 7.4
Experimental: The metabolic stability of a test compound is assayed at 37° C. using pooled liver microsomes (mouse or human liver microsomes). An aliquot of 10 μL of 50 μM test compound is mixed with 490 μL of 0.611 mg/mL liver microsomes, then 50 μL of the mixtures are dispensed to the 96 well tubes and warmed at 37° C. for 10 minutes. The reactions are initiated by adding 50 μL of the pre-warmed NADPH regeneration system solution (add 1.2 μL solution, 240 μl solution B, mix with 10.56 ml KPBS) and then incubated at 37° C. The final incubation solution contains 100 mM potassium phosphate (pH 7.4), 1.3 mM NADP+, 3.3 mM glucose 6-phosphate, 0.4 Unit/mL of glucose 6-phosphate dehydrogenase, 3.3 mM magnesium chloride, 0.3 mg/mL liver microsomes and 0.5 μM test article. After 0, 15, 30 and 60 minutes in a shaking incubator, the reactions are terminated by adding 100 μL of acetonitrile containing 200 nM buspirone as an internal standard. All incubations are conducted in duplicate. […] Samples are then centrifuged at 3500 rpm for 10 minutes (4° C.) using Sorvall Legend XRT Centrifuge (Thermo Scientific, GE). Supernatants (40 μL) are transferred into clean 96-deep well plates. Each well is added with 160 μL of ultrapure water (Milli-Q, Millipore Corporation) with 0.1% (v/v) formic acid (Fisher Chemical), mixed thoroughly and subjected to LC/MS/MS analysis in MRM positive ionization mode.
All the samples are measured using a mass spectrometer (QTrap 5500 quadrupole/ion trap) coupled with a Shimadzu HPLC system. The HPLC system consisted of a Shimadzu series degasser, binary quaternary gradient pumps, column heater coupled to an autosampler, and a Phenomenex Gemini-NX, C18, 3.0 μm or Phenomenex Lunar, C8, 5.0 μM HPLC column (Phenomenex, Torrance, CA), and eluted with a mobile phase gradient consisting of Solution A (0.1% formic acid water) and Solution B (0.1% formic acid acetonitrile). The column temperature is maintained at 40° C. All the analytes are detected with positive-mode electrospray ionization (ES+).
The half-life for the metabolic degradation of the test compound is calculated by plotting the time-course disappearance of the test compound during the incubation with liver microsomes. Each plot is fitted to a first-order equation for the elimination of the test compound (% remaining compound) versus time using non-linear regression (Equation 1).
where Ct is the mean relative substrate concentration at time t and C0 is the initial concentration (0.5 μM) at time 0. Note that the area ratio of the substrate peak to an internal standard peak is proportional to the analyte concentration and is used for regression analysis to derive a value of k.

Compound	half-life at 0.5 μM
C#Cc1c(F)ccc2cc(O)cc(-c3ncc4c(N5CC6CCC(C5)N6C(=O)Nc5ncccn5)nc(OC[C@@]56CCCN5C[C@H](F)C6)nc4c3F)c12 [Compound A131, 3-(7-(8-ethynyl-7-fluoro-3-hydroxynaphthalen-1-yl)-8-fluoro-2-(((2R,7aS)-2-fluoro-tetrahydro-1H-pyrrolizin-7a(5H)-yl)methoxy)pyrido[4,3-d]pyrimidin-4-yl)-N-(pyrimidin-2-yl)-3,8-diazabicyclo[3.2.1]-octane-8-carboxamide]	> 10 min
C#Cc1c(F)ccc2cc(O)cc(-c3ncc4c(N5CC6CCC(C5)N6C(=O)n5cc(C#N)cn5)nc(OC[C@@]56CCCN5C[C@H](F)C6)nc4c3F)c12 [Compound A143, 1-(3-(7-(8-ethynyl-7-fluoro-3-hydroxynaphthalen-1-yl)-8-fluoro-2-(((2R,7aS)-2-fluoro-tetrahydro-1H-pyrrolizin-7a(5H)-yl)methoxy)pyrido[4,3-d]pyrimidin-4-yl)-3,8-diaza-bicyclo[3.2.1]octane-8-carbon-yl)-1H-pyrazole-4-carbonitrile]	> 10 min
C#Cc1c(F)ccc2cc(O)cc(-c3ncc4c(N5CC6CCC(C5)N6C(=O)n5ccnc5)nc(OC[C@@]56CCCN5C[C@H](F)C6)nc4c3F)c12 [Compound A163, (3-(7-(8-ethynyl-7-fluoro-3-hydroxynaphthalen-1-yl)-8-fluoro-2-(((2R,7aS)-2-fluoro-tetrahydro-1H-pyrrolizin-7a(5H)-yl)methoxy)pyrido[4,3-d]pyrimidin-4-yl)-3,8-diaza-bicyclo[3.2.1]octan-8-yl)(1H-imidazol-1-yl)methanone]	> 10 min
N#Cc1c(N)sc2c(F)ccc(-c3ncc4c(N5CC6CCC(C5)N6C(=O)n5cncn5)nc(OC[C@@]56CCCN5C[C@H](F)C6)nc4c3F)c12 [Compound A206, 4-(4-(8-(1H-1,2,4-triazole-1-carbonyl)-3,8-diazabicyclo-[3.2.1]octan-3-yl)-8-fluoro-2-(((2R,7aS)-2-fluorotetrahydro-1H-pyrrolizin-7a(5H)-yl)meth-oxy)pyrido[4,3-d]pyrimidin-7-yl)-2-amino-7-fluorobenzo[b]-thiophene-3-carbonitrile]	> 10 min
N#Cc1c(N)sc2c(F)ccc(-c3c(Cl)cc4c(N5CC6CCC(C5)N6C(=O)Nc5ncccn5)nc(OC[C@@]56CCCN5C[C@H](F)C6)nc4c3F)c12 [Compound A215, 3-(7-(2-amino-3-cyano-7-fluorobenzo[b]thiophen-4-yl)-6-chloro-8-fluoro-2-(((2R,7aS)-2-fluorotetrahydro-1H-pyrrolizin-7a(5H)-yl)methoxy)quinazolin-4-yl)-N-(pyrimidin-2-yl)-3,8-diazabicyclo[3.2.1]octane-8-carboxamide]	> 10 min
N#Cc1c(N)sc2c(F)ccc(-c3c(Cl)cc4c(N5CC6CCC(C5)N6C(=O)n5ccnc5C#N)nc(OC[C@@]56CCCN5C[C@H](F)C6)nc4c3F)c12 [Compound A220, 1-(3-(7-(2-amino-3-cyano-7-fluorobenzo[b]thiophen-4-yl)-6-chloro-8-fluoro-2-(((2R,7aS)-2-fluorotetrahydro-1H-pyrrol-izin-7a(5H)-yl)methoxy)quin-azolin-4-yl)-3,8-diazabicyclo-[3.2.1]octane-8-carbonyl)-1H-imidazole-2-carbonitrile]	> 10 min
N#Cc1ccn(C(=O)N2C3CCC2CN(c2nc(OC[C@@]45CCCN4C[C@H](F)C5)nc4c(F)c(-c5ccc(F)c6sc(N)c(C#N)c56)c(Cl)cc24)C3)n1 [Compound A224, 1-(3-(7-(2-amino-3-cyano-7-fluorobenzo[b]thiophen-4-yl)-6-chloro-8-fluoro-2-(((2R,7aS)-2-fluorotetrahydro-1H-pyrrolizin-7a(5H)-yl)methoxy)quinazolin-4-yl)-3,8-diazabicyclo[3.2.1]-octane-8-carbonyl)-1H-pyrazole-3-carbonitrile]	> 10 min
